Assay [1] has as its target T1, PDE4B: catalytic domain of human PDE4B from S152-S528 (Homo sapiens, UniProt Q07343).
T1 construct: The catalytic domain of human PDE4B from S152-S528; His6 (N, cleaved yes); thrombin cleavage site (N, cleaved yes); made in house; host or cells: E. coli BL21 (DE3) RIL
Kind of assay: PDE4 IC50 determination by Scintillation Proximity Assay (SPA), PDE4B catalytic domain. The format is biochemical. To be noted: [3H]cAMP SPA, 30 min at 30° C. As to the method: (§1) IC50s were determined by Scintillation Proximity Assay (SPA). The principle of the assay is based on the fact that cAMP, the PDE4 substrate, binds weakly to Yittrium Silicate SPA beads, whereas AMP, the product of PDE4 hydrolysis binds strongly. Thus, the extent of PDE4 hydrolysis of a sample of [^3H]cAMP can be measured because only the [^3H]AMP produced by PDE4 hydrolysis will bind to the SPA beads and produce a scintillation signal.
Enzyme was stored in 50% glycerol at −20°.
(§2) In addition to the compound dilutions, each assay plate contained control wells with 1 μl of DMSO (to define 0% enzyme inhibition) or 1 μl of 200 μM roflumilast (to define 100% enzyme inhibition). Using a Beckman FX robot, 10 μl of [^3H] cAMP (Amersham TRK559) at […] in assay buffer (50 mM Tris, pH 7.5; 8.3 mM MgCl; 1.7 mM EGTA; 0.01% BSA) was transferred to each assay well. Next, 10 μl of PDE4 enzyme in assay buffer was added and the plates were shaken for 30 s. at 1000 rpm to start the cAMP hydrolysis reaction. The concentrations of enzyme used were: PDE4B, 80 ng/ml; PDE4D, 4 ng/ml; PDE4B2, 2.5 μl of 50% glycerol stock/ml; PDE4D5 0.083 μl of 50% glycerol stock/ml. Assay plates were covered and incubated for 30 min. at 30° C. Reactions were stopped by robotic addition of 10 μl of 5 mg/ml SPA beads (Amersham RPNQ0013) in 18 mM ZnSO4. The assay plates were covered with clear plastic film, centrifuged for 1 min. at 1000 RPM to settle the SPA beads, and counted using a Wallac TriLux scintillation counter. IC50's were calculated from the raw assay data by non-linear regression curve fitting using the Assay Explorer software package from MDL.

Assay [2] has as its target T2, PDE4B2: full-length human PDE4B2 isozyme (Homo sapiens, UniProt Q07343).
T2 construct: made in house; host or cells: baculovirus infected insect cells (pFastBacHT)
Kind of assay: PDE4 IC50 determination by Scintillation Proximity Assay (SPA), full-length PDE4B2. It is filed as biochemical. To be noted: cell lysate, [3H]cAMP SPA. On the procedure:
(§3) The enzyme was not purified from the cell lysates, so enzyme concentrations were not determined. Enzyme was stored in 50% glycerol at −20°.
as §1, §2

Assay [3] addresses T3, PDE4D5: full-length human PDE4D5 isozyme (Homo sapiens, UniProt Q08499).
T3 construct: made in house; host or cells: baculovirus infected insect cells (pFastBacHT)
Kind of assay: PDE4 IC50 determination by Scintillation Proximity Assay (SPA), full-length PDE4D5. The format is biochemical. To be noted: cell lysate, [3H]cAMP SPA. As to the method:
as §3, §1, §2

Assay [4] has as its system TNF-α release from whole blood cultures stimulated with LPS. Kind of assay: IC50 by TNF alpha production upon stimulation of whole blood cultures with LPS. It is filed as cell-based. To be noted: human whole blood (buffy coat) culture, 100 ng/ml LPS, 4 hours; read-out: h TNFα IC50. As to the method:
Compounds were assayed to generate IC50 numbers based on the inhibition of TNF-α release from whole blood cultures, using the following assay protocol (see Table 5 for compounds tested and results). Inhibition of PDE4B results in the inhibition of TNF-α release by whole blood cultures stimulated with lipopolysaccharide (LPS). The measurement of TNF-α release was used to assess compounds as PDE4B inhibitors.
Compounds were provided in DMSO at 20 mM and 2 μl per well was added to one row of a dilution plate. Added 98 μl of RPMI 1640 media with 2.5% heat inactivated FBS to each well containing compound. The same media with 2% DMSO was prepared and 60 μl was added to each of the empty wells in the dilution plate. The compound was serially diluted 1:3 (30 μl to 60 μl of media) for a total of 8 concentrations per compound. Wells were also prepared with 50 μM roflumilast and piclamilast as 100% inhibition controls, and 2% DMSO in media was used as 0% inhibition control. A 20 μl aliquot of each sample was transferred to an assay plate in duplicate.
Human buffy coat was obtained from the Stanford Medical School Blood Center and diluted with 7 volumes of RPMI 1640 media with 1% penicillin/streptomycin and 2.5% heat inactivated FBS. A 160 μl aliquot of the diluted blood was added to each well of the assay plates, mixed and incubated for 1 hour at 37° C. in 5% CO2. LPS (Sigma catalog number L2637) that had been diluted to 1 mg/ml in PBS and stored as 20 μl aliquots at −20° C. was thawed and diluted 1000× to 1 μg/ml. A 20 μl aliquot of this was added to each sample (final concentration 100 ng/ml LPS) after the 1 hour incubation. A background sample was prepared without addition of LPS as well. The samples were mixed on a shaker for one minute at 900 RPM and incubated for 4 hours at 37° C. in 5% CO2. The plates were then put on a shaker for one minute at 900 RPM, followed by centrifuging at 100×g for 10 minutes, deceleration setting of 5. The top 75 μl of supernatant was carefully pipetted to a new plate and frozen at −20° C.
A 50 μl aliquot of incubation buffer (Biosource International Immunoassay Kit:Human TNF-α catalog number KHC3011) was added to each well of a plate coated with monoclonal antibody specific for hTNF-α (Biosource kit). The supernatant blood samples were thawed and a 50 μl aliquot along with 50 μl of diluent buffer (Biosource kit) were added to incubation buffer and the samples were incubated for 2 hours at room temperature. The samples were washed 4 times with 300 μl/well wash buffer (Biosource kit). A 100 μl aliquot of biotinylated anti-TNFalpha (Biosource kit) was added and the samples incubated for 1 hour at room temperature. The samples were washed 4 times with 300 μl/well wash buffer. A 100 μl aliquot of Streptavidin-HRP solution (BioSource kit) was added and the samples incubated for 30 minutes at room temperature. The samples were washed 4 times with 300 μl/well wash buffer. A 100 μl aliquot of Chromagen (Biosource kit) was added and the samples incubated in the dark for 30 minutes. A 100 μl aliquot of stop solution (2N H2SO4) was added to each sample and samples were read at 450 nm on a WallacVictor for 0.1 sec/well.

In patent US7605168B2 (Plexxikon, Inc., priority 2004, dated 2009) one finds IC50 data, which are given here for 19 molecules.

What is called IC50 is the concentration that gives 50% inhibition.

Structures are written as SMILES.

T1 sequence (Q07343 324-700): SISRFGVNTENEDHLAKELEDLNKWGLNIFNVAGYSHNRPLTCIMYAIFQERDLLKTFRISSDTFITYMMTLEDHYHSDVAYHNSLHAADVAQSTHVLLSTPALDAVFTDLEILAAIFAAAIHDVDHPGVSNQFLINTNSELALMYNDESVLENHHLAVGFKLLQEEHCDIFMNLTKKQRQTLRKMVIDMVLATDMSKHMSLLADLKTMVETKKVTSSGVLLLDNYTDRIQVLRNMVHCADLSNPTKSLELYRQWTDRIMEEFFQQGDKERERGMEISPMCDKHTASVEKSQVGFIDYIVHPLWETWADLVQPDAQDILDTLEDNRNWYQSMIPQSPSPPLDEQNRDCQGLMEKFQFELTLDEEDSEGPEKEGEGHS
T3 sequence (Q08499 with tags, fused parts or gaps isoform Q08499-6): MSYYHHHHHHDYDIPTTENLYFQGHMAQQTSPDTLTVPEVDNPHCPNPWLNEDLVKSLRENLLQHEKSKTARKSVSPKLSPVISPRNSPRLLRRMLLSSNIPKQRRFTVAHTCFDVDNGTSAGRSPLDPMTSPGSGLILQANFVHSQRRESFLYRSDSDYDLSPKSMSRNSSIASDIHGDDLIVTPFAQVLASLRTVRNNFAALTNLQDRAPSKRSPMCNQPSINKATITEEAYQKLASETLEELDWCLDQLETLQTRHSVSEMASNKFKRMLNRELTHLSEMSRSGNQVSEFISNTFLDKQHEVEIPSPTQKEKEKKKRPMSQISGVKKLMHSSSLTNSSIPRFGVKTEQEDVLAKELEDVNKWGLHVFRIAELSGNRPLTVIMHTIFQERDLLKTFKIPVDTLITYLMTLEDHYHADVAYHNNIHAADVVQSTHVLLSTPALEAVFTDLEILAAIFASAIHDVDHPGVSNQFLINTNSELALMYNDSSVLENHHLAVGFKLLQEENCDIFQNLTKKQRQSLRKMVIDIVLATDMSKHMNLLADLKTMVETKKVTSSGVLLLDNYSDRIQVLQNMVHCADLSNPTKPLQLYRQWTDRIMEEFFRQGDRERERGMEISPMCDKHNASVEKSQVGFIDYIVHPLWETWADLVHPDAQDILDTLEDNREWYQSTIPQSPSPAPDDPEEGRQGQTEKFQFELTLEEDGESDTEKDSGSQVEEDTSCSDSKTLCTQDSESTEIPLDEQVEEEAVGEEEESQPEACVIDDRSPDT
T2 sequence (Q07343 with tags, fused parts or gaps isoform Q07343-2): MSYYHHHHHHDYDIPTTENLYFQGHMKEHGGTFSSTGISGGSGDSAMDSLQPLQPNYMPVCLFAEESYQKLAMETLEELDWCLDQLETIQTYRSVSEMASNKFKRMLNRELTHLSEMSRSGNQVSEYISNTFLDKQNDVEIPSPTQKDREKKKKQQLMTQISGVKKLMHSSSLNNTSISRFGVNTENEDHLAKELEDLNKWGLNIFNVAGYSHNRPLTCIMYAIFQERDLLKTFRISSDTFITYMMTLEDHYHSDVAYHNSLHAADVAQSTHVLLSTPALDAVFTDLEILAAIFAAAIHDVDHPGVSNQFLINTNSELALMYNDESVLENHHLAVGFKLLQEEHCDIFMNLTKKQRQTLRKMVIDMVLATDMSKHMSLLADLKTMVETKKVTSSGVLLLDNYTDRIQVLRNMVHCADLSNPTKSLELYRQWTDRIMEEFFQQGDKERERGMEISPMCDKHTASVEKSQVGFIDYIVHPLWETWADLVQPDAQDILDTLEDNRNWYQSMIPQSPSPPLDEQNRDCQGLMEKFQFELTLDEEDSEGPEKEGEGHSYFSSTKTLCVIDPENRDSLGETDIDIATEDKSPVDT

Take `CSc1nccc(-c2cn(S(=O)(=O)c3cccc4cccnc34)c3ncccc23)n1` [Compound 46, 8-[3-(2-Methylsulfanyl-pyrimidin-4-yl)-pyrrolo[2,3-b]pyridine-1-sulfonyl]-quinoline]: the IC50 in assay [1], in assay [2] and in assay [3] was under 10 µM throughout.

Take `COc1ccc(CC(=O)n2cc(-c3ccc(OC)c(OC)c3)c3cccnc32)cc1` [Compound 60, 1-[3-(3,4-Dimethoxy-phenyl)-pyrrolo[2,3-b]pyridin-1-yl]-2-(4-methoxy-phenyl)-ethanone-amide]: the IC50 in assay [1], in assay [2] and in assay [3] was under 10 µM each time.

On to `CCOc1ccc2ccccc2c1C(=O)n1cc(-c2ccc(S(C)(=O)=O)cc2)c2cccnc21` [Compound 84, (2-Ethoxy-naphthalen-1-yl)-[3-(4-methanesulfonyl-phenyl)-pyrrolo[2,3-b]pyridin-1-yl]-methanone], for which the concentration for half-maximal inhibition (IC50) in assay [2] is under 10 µM; in assay [3], under 10 µM; in assay [4] it was at most 10 µM.

On to `CCOc1ccc2ccccc2c1C(=O)n1cc(-c2cccc(S(C)(=O)=O)c2)c2cccnc21` [Compound 86, (2-Ethoxy-naphthalen-1-yl)-[3-(3-methanesulfonyl-phenyl)-pyrrolo[2,3-b]pyridin-1-yl]-methanone], for which the IC50 in assay [2] is under 10 µM; in assay [3], under 10 µM; in assay [4] it was at most 10 µM.

For `CCOc1ccc2ccccc2c1C(=O)n1cc(-c2cccc(C(=O)OCc3ccccc3)c2)c2cccnc21` [Compound 87, 3-[1-(2-Ethoxy-naphthalene-1-carbonyl)-1H-pyrrolo[2,3-b]pyridin-3-yl]-benzoic acid benzyl ester], the concentration for half-maximal inhibition (IC50) in assay [2] is under 10 µM; in assay [3], under 10 µM; in assay [4] it was at most 10 µM.

Take `c1cnc2[nH]cc(-c3ccc4c(c3)OCO4)c2c1` [Compound 90, 3-Benzo[1,3]dioxol-5-yl-1H-pyrrolo[2,3-b]pyridine]: the IC50 in assay [1], in assay [2] and in assay [3] was over 10 µM throughout.

On to `COc1ccc2c(c1)c(-c1ccc(OC)c(OC)c1)cn2S(=O)(=O)c1cccc2cccnc12` [Compound 92, 8-[3-(3,4-Dimethoxy-phenyl)-5-methoxy-indole-1-sulfonyl]-quinoline], for which the 50% inhibitory concentration (IC50) is under 10 µM in assay [2], under 10 µM in assay [3] and at most 10 µM in assay [4].

Regarding `COc1ccc(-c2cn(S(=O)(=O)c3cccc4cccnc34)c3ccc(Cl)cc23)cc1OC` [Compound 93, 8-[3-(3,4-Dimethoxy-phenyl)-5-chloro-indole-1-sulfonyl]-quinoline], the concentration for half-maximal inhibition (IC50) in assay [2] was under 10 µM; in assay [3], under 10 µM; in assay [4], at most 10 µM.

`COc1ccc(-c2cn(S(=O)(=O)c3ccccc3)c3ccccc23)cc1OC1CCCC1` [Compound 99, 1-Benzenesulfonyl-3-(3-cyclopentyloxy-4-methoxy-phenyl)-1H-indole]: the IC50 in assay [1], in assay [2] and in assay [3] was under 10 µM in each case.

In the case of `COc1ccc(-c2cn(C(=O)c3ccc(C#N)cc3)c3ncccc23)cc1OC` [Compound 106, 4-[3-(3,4-Dimethoxy-phenyl)-pyrrolo[2,3-b]pyridine-1-carbonyl]-benzonitrile], the IC50 in assay [2] was under 10 µM; in assay [3], under 10 µM; in assay [4], at most 10 µM.

Consider `CCOc1ccc(C(=O)n2cc(-c3ccc(OC)c(OC)c3)c3cccnc32)c(OCC)c1` [Compound 111, (2,4-Diethoxy-phenyl)-[3-(3,4-dimethoxy-phenyl)-pyrrolo[2,3-b]pyridin-1-yl]-methanone], for which the 50% inhibitory concentration (IC50) in assay [1], in assay [2] and in assay [3] was under 10 µM in each case.

Regarding `CCOc1ccc2ccccc2c1C(=O)n1cc(-c2ccc(OC)c(OC3CCCC3)c2)c2cccnc21` [Compound 119, [3-(3-Cyclopentyloxy-4-methoxy-phenyl)-pyrrolo[2,3-b]pyridin-1-yl]-(2-ethoxy-naphthalen-1-yl)-methanone], the half-inhibitory concentration (IC50) in assay [2] was under 10 µM; in assay [3], under 10 µM; in assay [4], at most 10 µM.

Regarding `CCOc1ccc2ccccc2c1C(=O)n1cc(-c2cccc(C(N)=O)c2)c2cccnc21` [Compound 121, 3-[1-(2-Ethoxy-naphthalene-1-carbonyl)-1H-pyrrolo[2,3-b]pyridin-3-yl]-benzamide], the IC50 was under 10 µM in assay [2], under 10 µM in assay [3] and at most 10 µM in assay [4].

For the molecule `CCOc1ccc2ccccc2c1C(=O)n1cc(-c2cccc(NS(C)(=O)=O)c2)c2cccnc21` [Compound 122, N-{3-[1-(2-Ethoxy-naphthalene-1-carbonyl)-1H-pyrrolo[2,3-b]pyridin-3-yl]-phenyl}-methanesulfonamide], the figures for the IC50 in assay [2], in assay [3] and in assay [4] were under 10 µM, under 10 µM and at most 10 µM, respectively.

`COc1ccc(-c2cccc3[nH]ccc23)cc1OC` [Compound 128, 4-(3,4-Dimethoxy-phenyl)-1H-indole]: the values for the 50% inhibitory concentration (IC50) in assay [2], in assay [3] and in assay [4] were under 10 µM, under 10 µM and at most 10 µM, respectively.

`COc1ccc(-c2ccc3[nH]ccc3c2)cc1OC` [Compound 129, 5-(3,4-Dimethoxy-phenyl)-1H-indole]: the figures for the IC50 in assay [2], in assay [3] and in assay [4] were under 10 µM, under 10 µM and at most 10 µM, respectively.

Consider `COc1ccc(-c2ccc3c(ccn3S(=O)(=O)c3cccc4cccnc34)c2)cc1OC` [Compound 130, 8-[5-(3,4-Dimethoxy-phenyl)-indole-1-sulfonyl]-quinoline], for which the half-inhibitory concentration (IC50) in assay [2] was under 10 µM; in assay [3] it was under 10 µM; in assay [4], at most 10 µM.

For the molecule `COc1ccc(-c2cccc3c2ccn3S(=O)(=O)c2cccc3cccnc23)cc1OC` [Compound 131, 8-[4-(3,4-Dimethoxy-phenyl)-indole-1-sulfonyl]-quinoline], the half-inhibitory concentration (IC50) is under 10 µM in assay [2], under 10 µM in assay [3] and at most 10 µM in assay [4].

Take `Cc1[nH]c2ncccc2c1-c1ccc2c(c1)OCO2` [Compound 142, 3-Benzo[1,3]dioxol-5-yl-2-methyl-1H-pyrrolo[2,3-b]pyridine]: the IC50 in assay [1] was under 10 µM; in assay [2], over 10 µM; in assay [3] it was over 10 µM.
